Reference: US20260000642A1 (Tay Therapeutics Limited, priority 2022, published 2026)
Where “and” joins values, the source holds several entries; their conditions need not be identical. Equal entries are not always repeated.

Legend:
[1] = Plasma stability assay, mouse plasma; format: in vitro ADME; conditions: 37° C., Method 1 (5 μM)
Experimental: Exemplary compounds of the disclosure are stable upon incubation in mouse plasma. Stability is expressed as a % remaining after 120 minutes. The experimental methods and results (Table 2) are provided hereinafter.
Plasma Stability Assay, Method 1
From stock solution of compound in 10 mM DMSO, a working solution of 1 mM is prepared by diluting the compound in DMSO. To 398 μL of plasma pre-warmed at 37° C. for 15 minutes), 2 μL of working solution of compound is added, resulting in a final concentration of 5 μM (0.5% DMSO) for the compound. The sample is then incubated at 37° C. Aliquot is withdrawn at specified time-points (0, 15, 30, 60 and 120 mins). The reaction is stopped by addition of 450 μL cold acetonitrile containing internal standard (IS). […] Aliquots of the supernatant is analysed using LC-MS/MS. The percent remaining of the compound at each time point is calculated with respect to the control sample (0 min time-point).
Plasma Stability Assay, Method 2
A working solution of compound (500 μM) is prepared in DMSO (100%). To 735 μL of plasma, 15 μL of working solution of compound is added—resulting in a final concentration of 10 μM (2% DMSO) for the compound. […] The samples are centrifuged and the supernatants analyzed using LC-MS/MS. The percent remaining of the compound at each time point is calculated with respect to the control sample (0 min time-point).

[2] = tested on: rat anti-collagen IgG1 antibodies; test: CIA model: rat anti-collagen IgG1 antibodies in serum at day 21; format: in vivo, Lewis rat; conditions: for levels of rat anti-collagen IgG1 antibodies relative to CIA without treatment: day 21
Experimental: Blood was additionally collected from groups 1-7 via cardiac puncture following euthanasia on Day 21. Blood from cardiac puncture was placed in a 1.5 mL centrifuge tube without an anticoagulant and centrifuged at 8000 rcf for 15 minutes. Serum was divided into two separate tubes and stored at −75±15° C. One tube was used to analyze IgG1, and the other tube was reserved for additional analyses.
All data measured and recorded was analyzed using SPSS 16.0 software. Groups were compared using one-way ANOVA and significance was set at p<0.05.

[3] = tested on: collagen-induced arthritis in Lewis rats; test: CIA model: histopathologic analysis of H&E-stained hind limbs; format: in vivo, Lewis rat
From the text: Hind limbs were collected following euthanasia, with the left limb being used for H&E staining.
H&E-stained slides of designated tissues from animals were transferred to an independent pathologist for microscopic evaluation (SPFBio). Samples were assigned the histologic grades based on the severity of change from tissue where CIA was not induced. Histology grades assigned were as follows: grade 1 (minimal change), grade 2 (mild change), grade 3 (moderate change), grade 4 (marked change), and grade 5 (severe change).
Moderate inflammation was also associated with increased edema fluid, fibrin, and cellular debris. Marked mixed cell inflammation was characterized by dense, widespread accumulations of neutrophils and macrophages with lesser number of lymphocytes within one or more joint spaces, synovium and periarticular soft tissues. Marked inflammation was also associated with abundant edema fluid, fibrin, and cellular debris.
Marked granulation tissue (pannus) was associated with inflammation and was characterized by widespread fibrovascular connective tissue that expanded/replaced the periarticular soft tissues of one or more joints, extended into/expanded joint spaces, was contiguous with areas of erosion/ulcer in articular cartilage and/or increased eroded surface of bone, and variably extended along the diaphysis.
Instances of minimal increased eroded surface were not associated with fragments of bone contiguous and/or surrounded by granulation tissue. […] In some areas, increased eroded surfaces were contiguous with areas of erosion/ulcer in the articular cartilages. Instance of marked increased eroded surface were often associated with fragments of bone contiguous with and/or surrounded by granulation tissue.
This observation was typically most pronounced at joint margins (transition zone). The ulceration was often associated with inflammation and granulation tissue extending through the defect to the subchondral bone.
Marked increased periosteal bone (periosteal bone formation) was characterized by extensive areas of increased bone matrix and numerous prominent osteoblasts lining trabecular surfaces along the metaphysis and/or diaphysis of one or more bones. In some areas, increased periosteal bone was contiguous with increased eroded surface and/or erosion/ulcer at articular cartilage.

[4] = Pharmacokinetics of Example 101 in Lewis rats (oral, CIA study); format: in vivo, Lewis rat
Experimental: Blood samples were collected from animals in group 8 on Day 0, and blood samples were collected from group 9 on Day 20. Blood samples from group 8 and group 9 were collected at 0.25, 0.5, 1, 2, 4, 8, 10, 12, 13, and 24-hours following morning administration of their first dose of the compound. The second dose of the compound was administered after the 8-hour collection timepoint. All blood samples were collected at the eye socket and put into tubes containing EDTA-K2 as an anticoagulant and centrifuged at 4° C. at 4,000×g for 5 minutes. Plasma was transferred to a separate tube and stored at −75±15° C. for PK analysis. Pharmacokinetic analyses for Example 101 in Lewis rats were performed as described in Experimental Method B.

[5] = tested on: hydroxyproline; test: UUO model: kidney hydroxyproline by ELISA; format: in vivo, rat; conditions: UUO rats; 30 mg/kg; compared with sham and UUO + vehicle
From the text: Serum for blood biochemistry analysis was collected into centrifuge tubes without coagulant four hours after final dosing. Blood plasma samples from group 3 was collected into tubes with K2EDTA four hours after final dosing. At the conclusion of the study (end of the 14-day period), animals were euthanized. Kidney tissue was collected four hours after final dosing. Ligated side kidney was divided into three copies 1/3 fix into 10% formalin for H&E analysis, 1/3 into RNA for PCR analysis of tissue biomarkers Col1a1, TGF-b1, MCP-1, IL-1b, IL-6, IL-17, TNF-a, and Timp1, and 1/3 for hydroxyproline assay analyzed by ELISA. RNA was extracted from tissue using the RNeasy mini kit (Qiagen). RNA concentration was measured using a NanoDrop One Spectrophotometer (ThermoFisher) and converted to cDNA using a High-Capacity RNA-to-cDNA kit (Invitrogen). RT-PCR was performed to measure levels of mRNA of different targets using TaqMan® Gene Expression Master Mix and TaqMan® probe/primer sets on a QuantStudio 6 Real-Time PCR System (ThermoFisher). Fold change in target gene expression was determined using the ΔΔCt method.

[6] = CIA rats, 30 mg/kg (Group 7), seven of eight samples
[7] = day 0, 10 mg/kg, individual test subjects
[8] = day 20, 10 mg/kg, individual test subjects
[9] = hind limbs, CIA induced, 8 animals examined, comparator groups 3-4, dose not given

Structure (SMILES): CNC(=O)c1[nH]c(C(=O)NC2CCC2)cc1O[C@@H](C)c1ccccc1 [Example 101, N^5-cyclobutyl-N^2-methyl-3-(1-phenylethoxy)-1H-pyrrole-2,5-dicarboxamide]
- Plasma Stability (% remaining at 120 minutes) Mouse [1]: >99%
- levels of rat anti-collagen IgG1 antibodies relative to CIA without treatment ([2]; 1 mg/kg, p<0.05): significantly decreased
- levels of rat anti-collagen IgG1 antibodies relative to CIA without treatment ([2]; 10 mg/kg, p<0.05): significantly decreased
- levels of rat anti-collagen IgG1 antibodies relative to CIA without treatment ([2]; 30 mg/kg, p<0.01): significantly decreased
- articular cartilage erosion or ulcers ([3]; CIA rats, 3 mg/kg (Group 5)): mild to moderate
- granulation tissue (pannus) ([3]; CIA rats, 3 mg/kg (Group 5)): mild to moderate
- increased eroded surface of bone (bone resorption) ([3]; CIA rats, 3 mg/kg (Group 5)): mild to moderate
- increased periosteal bone (periosteal bone formation) ([3]; CIA rats, 3 mg/kg (Group 5)): mild to moderate
- mixed cell inflammation ([3]; CIA rats, 3 mg/kg (Group 5)): moderate to marked
- erosion in the articular cartilages ([3]; CIA rats, 10 mg/kg (Group 6)): moderate
- granulation tissue (pannus) ([3]; CIA rats, 10 mg/kg (Group 6)): moderate
- increased eroded surface of bone (bone resorption) ([3]; CIA rats, 10 mg/kg (Group 6)): moderate
- increased periosteal bone (periosteal bone formation) ([3]; CIA rats, 10 mg/kg (Group 6)): moderate
- mixed cell inflammation ([3]; CIA rats, 10 mg/kg (Group 6)): moderate
- samples with no recorded pathological observations ([3]; CIA rats, 30 mg/kg (Group 7)): One out of eight samples
- erosion in the articular cartilages [3, 6]: mild
- granulation tissue (pannus) [3, 6]: moderate
- increased eroded surface of bone (bone resorption) [3, 6]: mild
- increased periosteal bone (periosteal bone formation) [3, 6]: mild
- mixed cell inflammation [3, 6]: moderate
- pathologic observations after microscopic evaluation (overall) ([3]; CIA rats, Groups 5-7 (3, 10, 30 mg/kg)): at lower levels relative to samples from animals in the CIA-induced group (Group 2) in a dose-dependent manner
- Erosion/Ulcer, cartilaginous, Mild, number of animals ([3]; hind limbs, CIA induced, 8 animals examined, 30 mg/kg (Group 7)): 4
- AUClast/D [4, 7]: 820 kg·ng·h/mL/mg and 720 kg·ng·h/mL/mg
- Plasma concentration at 0.25 h [4, 7]: 375 ng/mL and 378 ng/mL and 754 ng/mL
- Plasma concentration at 24 h [4, 7]: 14.3 ng/mL and 35.6 ng/mL and 122 ng/mL
- T1/2 [4, 7]: 2.13 h and 2.54 h and 5.01 h
- Tmax [4, 7]: 10.0 h (2×) and 2.00 h
- AUCInf, Mean ([4]; day 0, 10 mg/kg, mean): 15371 ng·h/mL
- AUClast, Mean ([4]; day 0, 10 mg/kg, mean): 15019 ng·h/mL
- AUClast/D, Mean ([4]; day 0, 10 mg/kg, mean): 751 kg·ng·h/mL/mg
- AUC—% Extrap_obs, Mean ([4]; day 0, 10 mg/kg, mean): 2.29%
- MRTInf_obs, Mean ([4]; day 0, 10 mg/kg, mean): 8.61 h
- AUC—% Extrap_obs [4, 8]: 0.700%
- Cmax [4, 8]: 1660 ng/mL
- Plasma concentration at 8 h [4, 8]: 103 ng/mL and 215 ng/mL and 188 ng/mL
- Plasma concentration at 24 h [4, 8]: 16.7 ng/mL and 20.1 ng/mL and 38.1 ng/mL
- AUClast/D, Mean ([4]; day 20, 10 mg/kg, mean): 528 kg·ng·h/mL/mg
- AUC—% Extrap_obs, Mean ([4]; day 20, 10 mg/kg, mean): 1.11%
- Cmax, Mean ([4]; day 20, 10 mg/kg, mean): 1707 ng/mL
- MRTInf_obs, Mean ([4]; day 20, 10 mg/kg, mean): 6.66 h
- hydroxyproline levels [5]: No significant differences

Structure (SMILES): C[C@@H]1C[C@H]2[C@@H]3CCC4=CC(=O)C=C[C@]4(C)[C@@]3(F)[C@@H](O)C[C@]2(C)[C@@]1(O)C(=O)CO [dexamethasone]
- Rat Anti-Collagen IgG1 Antibody Con. ([2]; day 21 serum, reference group (Dexamethasone or GSK620), before fold 2000 correction, individual animals): 11.01 units/ml and 2.63 units/ml and 0.65 units/ml and 1.27 units/ml and 5.87 units/ml and 2.28 units/ml and 3.96 units/ml and 3.67 units/ml
- Final Rat Anti-Collagen IgG1 Antibody Con. ([2]; day 21 serum, reference group (Dexamethasone or GSK620), individual animals): 22019.88 units/ml and 5250.27 units/ml and 1296.14 units/ml and 2541.14 units/ml and 4553.59 units/ml and 7925.50 units/ml and 7346.16 units/ml
- Erosion/Ulcer, cartilaginous, Marked, number of animals [3, 9]: 0
- Erosion/Ulcer, cartilaginous, Mild, number of animals [3, 9]: 0
- Erosion/Ulcer, cartilaginous, Minimal, number of animals [3, 9]: 0
- Erosion/Ulcer, cartilaginous, Moderate, number of animals [3, 9]: 0
- Granulation tissue, Marked, number of animals [3, 9]: 0
- Granulation tissue, Mild, number of animals [3, 9]: 0
- Granulation tissue, Minimal, number of animals [3, 9]: 0
- Granulation tissue, Moderate, number of animals [3, 9]: 0
- Increased bone, periosteum, Marked, number of animals [3, 9]: 0
- Increased bone, periosteum, Mild, number of animals [3, 9]: 0
- Increased bone, periosteum, Minimal, number of animals [3, 9]: 0
- Increased bone, periosteum, Moderate, number of animals [3, 9]: 0
- Increased eroded surface, bone, Marked, number of animals [3, 9]: 0
- Increased eroded surface, bone, Mild, number of animals [3, 9]: 0
- Increased eroded surface, bone, Minimal, number of animals [3, 9]: 0
- Increased eroded surface, bone, Moderate, number of animals [3, 9]: 0
- Mixed cell inflammation, Marked, number of animals [3, 9]: 0
- Mixed cell inflammation, Mild, number of animals [3, 9]: 0
- Mixed cell inflammation, Minimal, number of animals [3, 9]: 0
- Mixed cell inflammation, Moderate, number of animals [3, 9]: 0
- No Visible Lesions, number of animals [3, 9]: 8
